From patent US7803930B2, “Antisense modulation of apolipoprotein B-expression” (Isis Pharmaceuticals, Inc., priority 2002, dated 2010)
In the oligonucleotide strings, read from the 5' end, every base follows the letter of its sugar. An asterisk marks phosphorothioate; unmarked linkages are phosphodiester. Other units and linkages are bracketed, terminal groups are in braces. A string of capitals states the bases alone. e = 2'-O-(2-methoxyethyl) (MOE); [5mC] = 5-methylcytosine; d = 2'-deoxy (DNA)

Legend:
lipoprotein(a) = experiment: Lipoprotein(a) particle secretion from primary human hepatocytes, ELISA; type: cell-based; details: 24 hours
Experimental: Primary human hepatocytes (InVitro Technologies, Baltimore, Md.), cultured and transfected as described herein, were treated for 24 hours with 50 or 150 nM of ISIS 271009 (SEQ ID NO: 319), 281625 (SEQ ID NO: 224), 301012 (SEQ ID NO: 247) or 301027 (SEQ ID NO: 262). Cells were also treated with 150 nM of the control oligonucleotides ISIS 113529 (SEQ ID NO: 859) or ISIS 13650 (SEQ ID NO: 806). Untreated cells served as a control. Following 24 hours of oligonucleotide treatment, the amount of lipoprotein(a) in the culture medium collected from the treated cells was measured using a commercially available ELISA kit (ALerCHEK Inc., Portland, Me.). The results are the average of three experiments and are expressed as percent change in lipoprotein(a) secretion relative to untreated controls.

apolipoprotein B protein = experiment: Apolipoprotein B protein secreted from primary human hepatocytes, ELISA; type: cell-based; details: 300 nM
[1] = system: human apolipoprotein B protein; experiment: Transgenic mice (Example 47): serum human apolipoprotein B protein by ELISA; type: in vivo, human transgene in mouse; details: 25 mg/kg, relative to saline-treated animals
Experimental: Serum samples were also collected at 2, 4, 6 and 8 weeks and were evaluated for human apolipoprotein B expression by using a human apolipoprotein B specific ELISA kit (ALerCHEK Inc., Portland, Me.). […] Treatment with ISIS 301012 reduced serum human apolipoprotein B protein by 70, 87, 81 and 41% at 2, 4, 6 and 8 weeks, respectively, relative to saline-treated control animals. Serum from transgenic mice was also subjected to immunoblot analysis using both human and mouse specific apolipoprotein B antibodies (US Biologicals, Swampscott, Mass. and Santa Cruz Biotechnology, Inc., Santa Cruz, Calif., respectively).

[2] = Transgenic mice dosing study (Example 52): serum total, LDL- and HDL-cholesterol; type: in vivo, mouse; details: serum
Experimental: A long-term study of inhibition of human apolipoprotein B by ISIS 301012 in C57BL/6NTac-TgN(APOB100) mice (Taconic, Germantown, N.Y.) was conducted for a 3 month period. Mice were dosed intraperitoneally twice a week with 10 or 25 mg/kg ISIS 301012 (SEQ ID No: 247) for 12 weeks. Saline-injected animals served as controls. Each treatment group comprised 4 animals.
Results are presented as mg/dL in serum and represent the average of 4 animals. Results from the saline control animals are also shown.

[3] = 10 mg/kg i.p. twice a week, 2 weeks
[4] = 10 mg/kg i.p. twice a week, 4 weeks
[5] = 10 mg/kg i.p. twice a week, 6 weeks
[6] = 10 mg/kg i.p. twice a week, 8 weeks
[7] = 10 mg/kg i.p. twice a week, Start
[8] = 25 mg/kg i.p. twice a week, 2 weeks
[9] = 25 mg/kg i.p. twice a week, 4 weeks
[10] = 25 mg/kg i.p. twice a week, 6 weeks
[11] = 25 mg/kg i.p. twice a week, 8 weeks
[12] = 25 mg/kg i.p. twice a week, Start

Q: Which results are given for “113529 (antisense e[5mC]*eT*e[5mC]*eT*eT*dA*d[5mC]*dT*dG*dT*dG*d[5mC]*dT*dG*dT*eG*eG*eA*e[5mC]*eA) [compound 113529]”?
A: % Change in lipoprotein(a) secretion (lipoprotein(a); 150 nM): +14%; % Change in apolipoprotein B protein secretion (apolipoprotein B protein; 24 hours): −2%; % Change in apolipoprotein B protein secretion (apolipoprotein B protein; 48 hours): −5%

Q: Which results are given for “301012 (eG*e[5mC]*e[5mC]*eT*e[5mC]*dA*dG*dT*d[5mC]*dT*dG*d[5mC]*dT*dT*d[5mC]*eG*e[5mC]*eA*e[5mC]*e[5mC]) [compound 301012]”?
A: % Change in lipoprotein(a) secretion (lipoprotein(a); 50 nM): −27%; % Change in lipoprotein(a) secretion (lipoprotein(a); 150 nM): −37%; % Change in apolipoprotein B protein secretion (apolipoprotein B protein; 24 hours): −41%; % Change in apolipoprotein B protein secretion (apolipoprotein B protein; 48 hours): −48%

Q: What does the source list for “ISIS 301012: SEQ ID NO: 247, antisense oligonucleotide targeted to human apolipoprotein B (antisense GCCTCAGTCTGCTTCGCACC; chemistry not given here)”?
A: reduction of serum human apolipoprotein B protein (ELISA) ([1]; 2 weeks): 70%; reduction of serum human apolipoprotein B protein (ELISA) ([1]; 4 weeks): 87%; reduction of serum human apolipoprotein B protein (ELISA) ([1]; 6 weeks): 81%; reduction of serum human apolipoprotein B protein (ELISA) ([1]; 8 weeks): 41%; HDL-cholesterol [2, 3]: 69 mg/dL; LDL-cholesterol [2, 3]: 20 mg/dL; Total cholesterol [2, 3]: 97 mg/dL; HDL-cholesterol [2, 4]: 78 mg/dL; LDL-cholesterol [2, 4]: 23 mg/dL; Total cholesterol [2, 4]: 111 mg/dL; HDL-cholesterol [2, 5]: 72 mg/dL; LDL-cholesterol [2, 5]: 37 mg/dL; Total cholesterol [2, 5]: 120 mg/dL; HDL-cholesterol [2, 6]: 79 mg/dL; LDL-cholesterol [2, 6]: 33 mg/dL; Total cholesterol [2, 6]: 122 mg/dL; HDL-cholesterol [2, 7]: 70 mg/dL; LDL-cholesterol [2, 7]: 35 mg/dL; Total cholesterol [2, 7]: 115 mg/dL; HDL-cholesterol [2, 8]: 73 mg/dL; LDL-cholesterol [2, 8]: 19 mg/dL; Total cholesterol [2, 8]: 101 mg/dL; HDL-cholesterol [2, 9]: 76 mg/dL; LDL-cholesterol [2, 9]: 19 mg/dL; Total cholesterol [2, 9]: 107 mg/dL; HDL-cholesterol [2, 10]: 80 mg/dL; LDL-cholesterol [2, 10]: 37 mg/dL; Total cholesterol [2, 10]: 124 mg/dL; HDL-cholesterol [2, 11]: 91 mg/dL; LDL-cholesterol [2, 11]: 44 mg/dL; Total cholesterol [2, 11]: 147 mg/dL; HDL-cholesterol [2, 12]: 64 mg/dL; LDL-cholesterol [2, 12]: 33 mg/dL; Total cholesterol [2, 12]: 107 mg/dL
